Source: patent publication US10189841B2, “Purinones as ubiquitin-specific protease 1 inhibitors” (Forma Therapeutics, Inc., priority 2015, dated 2019)

target: USP1 (construct USP1 (I-785, GG670, 671AA)/UAF1 (I-677)-Flag) (Homo sapiens (Human), UniProt O94782, G670A/G671A); assay: Ubiquitin-Rhodamine 110 assay for USP1 activity; type: biochemical; settings: USP1/UAF1 25 pM, Ub-Rh110 25 nM, 30 min preincubation
Description: Example 53: Ubitquin-Rhodamine 110 Assay for USP1 Activity
The HTS assay was performed in a final volume of 20 μL in assay buffer containing 20 mM Tris-HCl (pH 8.0, (1M Tris-HCl, pH 8.0 solution; Corning 46-031-CM)), 2 mM CaCl2 (1M Calcium Chloride solution; Sigma #21114) 1 mM GSH (L-Glutathione reduced; Sigma #G4251), 0.01% Prionex ([…] filtered, Sigma #G-0411), and 0.01% Triton X-100. Stock compound solutions were stored at −20° C. as 10 mM in DMSO. Up to 1 month prior to the assay, 2 mM test compounds were pre-dispensed into assay plates (Black, low volume; Corning #3820) and frozen at −20° C. Prestamped assay plates were allowed to come to room temperature on the day of the assay. For the screen, 100 nL of 2 mM was pre-dispensed for a final screening concentration of […] (DMSO(fc)=0.5%). The final concentration of the enzyme (USP1, construct USP1 (I-785, GG670, 671AA)/UAF1 (I-677)-Flag; Viva) in the assay was 100 pM. Final substrate (Ub-Rh110; Ubiquitin-Rhodamine 110, R&D Systems #U-555) concentration was 25 nM with [Ub-Rh110]<<Km. […] Plates were incubated stacked for 45 minutes at room temperature before fluorescence was read on the Envision (Excitation at 485 nm and Emission at 535 nm; Perkin Elmer) or on the PheraSTAR (Excitation at 485 nm and Emission at 535 nm; BMG Labtech)
Nanoliter quantities of either an 8-point or 10-point, 3-fold serial dilution in DMSO was pre-dispensed into assay plates (Perkin Elmer, ProxiPlate-384 F Plus, #6008269) for a final test concentration range of either 25 μM to 11 nM or 25 μM to 1.3 nM, respectively. The final concentration of the enzyme (USP1, construct USP1 (I-785, GG670, 671AA)/UAF1 (I-677)-Flag; Viva) in the assay was 25 pM. Final substrate (Ub-Rh110; Ubiquitin-Rhodamine 110, R&D Systems #U-555) concentration was 25 nM with [Ub-Rh110]<<Km. […] Plates were incubated stacked for 20 minutes at room temperature before 5 μL of stop solution (final concentration of 10 mM citric acid in assay buffer (Sigma, #251275-500G)). Fluorescence was read on the Envision (Excitation at 485 nm and Emission at 535 nm; Perkin Elmer) or on the PheraSTAR (Excitation at 485 nm and Emission at 535 nm; BMG Labtech).
For both assay formats data were reported as percent inhibition compared with control wells based on the following equation: % inh=[1−((FLU−AveLow)/(AveHigh−AveLow))]×100 where FLU=measured Fluorescence, AveLow=average Fluorescence of no enzyme control (n=16), and AveHigh=average Fluorescence of DMSO control (n=16). IC50 values were determined by curve fitting of the standard 4 parameter logistic fitting algorithm included in the Activity Base software package: IDBS XE Designer Model205. Data is fitted using the Levenburg Marquardt algorithm.

Chain of USP1 (construct USP1 (I-785, GG670, 671AA)/UAF1 (I-677)-Flag) (O94782 whole entry G670A/G671A): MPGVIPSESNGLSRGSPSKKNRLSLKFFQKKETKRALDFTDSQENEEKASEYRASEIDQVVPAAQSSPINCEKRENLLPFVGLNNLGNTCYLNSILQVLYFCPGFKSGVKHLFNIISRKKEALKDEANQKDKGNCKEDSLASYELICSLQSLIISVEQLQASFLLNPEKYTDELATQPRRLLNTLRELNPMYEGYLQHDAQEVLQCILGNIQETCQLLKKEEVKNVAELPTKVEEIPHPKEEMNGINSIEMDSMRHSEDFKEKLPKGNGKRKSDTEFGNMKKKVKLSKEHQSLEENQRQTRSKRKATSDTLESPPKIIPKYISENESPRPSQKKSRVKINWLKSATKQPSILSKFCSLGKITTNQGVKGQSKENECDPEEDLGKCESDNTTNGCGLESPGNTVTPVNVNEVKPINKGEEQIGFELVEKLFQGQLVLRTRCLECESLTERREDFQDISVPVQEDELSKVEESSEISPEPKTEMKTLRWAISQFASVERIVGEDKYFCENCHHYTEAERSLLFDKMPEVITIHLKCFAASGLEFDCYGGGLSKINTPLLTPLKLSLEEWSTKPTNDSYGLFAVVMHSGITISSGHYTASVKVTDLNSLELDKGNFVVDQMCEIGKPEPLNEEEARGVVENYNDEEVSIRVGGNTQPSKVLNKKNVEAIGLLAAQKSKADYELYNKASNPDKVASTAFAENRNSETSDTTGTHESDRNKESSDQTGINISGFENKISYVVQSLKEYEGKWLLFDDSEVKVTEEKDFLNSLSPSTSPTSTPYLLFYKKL
Chain of USP1 (construct USP1 (I-785, GG670, 671AA)/UAF1 (I-677)-Flag) (Q8TAF3 whole entry partner): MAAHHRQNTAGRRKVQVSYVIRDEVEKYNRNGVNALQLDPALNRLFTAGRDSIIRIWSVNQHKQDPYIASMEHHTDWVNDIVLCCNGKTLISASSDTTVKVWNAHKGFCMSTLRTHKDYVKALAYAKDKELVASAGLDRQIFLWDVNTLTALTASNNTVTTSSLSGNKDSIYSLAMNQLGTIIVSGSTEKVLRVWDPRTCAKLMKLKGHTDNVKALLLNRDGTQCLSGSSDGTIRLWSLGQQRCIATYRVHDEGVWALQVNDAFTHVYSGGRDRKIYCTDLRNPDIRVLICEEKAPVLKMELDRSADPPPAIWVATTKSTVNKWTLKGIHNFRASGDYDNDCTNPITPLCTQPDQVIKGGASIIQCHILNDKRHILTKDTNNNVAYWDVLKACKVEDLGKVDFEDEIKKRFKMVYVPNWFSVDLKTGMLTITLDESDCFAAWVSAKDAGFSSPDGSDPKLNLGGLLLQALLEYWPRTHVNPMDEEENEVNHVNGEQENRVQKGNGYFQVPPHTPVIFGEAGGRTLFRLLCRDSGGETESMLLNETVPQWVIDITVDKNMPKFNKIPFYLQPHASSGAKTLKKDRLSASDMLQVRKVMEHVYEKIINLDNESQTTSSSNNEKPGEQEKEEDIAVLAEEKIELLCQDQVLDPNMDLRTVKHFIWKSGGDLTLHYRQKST

| Compound | IC50 [nM] |
| --- | --- |
| CC(C)c1ccccc1-c1ncc2[nH]c(=O)n([C@H](C)c3ccc(-n4cccn4)cc3)c2n1 (single isomer, unassigned) [Compound I-158] | < 50 |
| CC(C)c1ccccc1-c1ncc2[nH]c(=O)n(Cc3ccc(-n4ccc([C@H]5CCCNC5)n4)cc3)c2n1 (single isomer, unassigned) [Compound I-225] | 50 to 200 |
| Cc1cc(C)n(-c2ccc(Cn3c(=O)[nH]c4cnc(-c5ccccc5C(C)C)nc43)cc2)n1 [Compound I-1, 9-(4-(3,5-Dimethyl-1H-pyrazol-1-yl)benzyl)-2-(2-isopropylphenyl)-7,9-dihydro-8H-purin-8-one] | < 50 |
| CC(C)c1ncccc1-c1ncc2[nH]c(=O)n(Cc3ccc(-n4nccn4)cc3)c2n1 [Compound I-3, 9-(4-(2H-1,2,3-triazol-2-yl)benzyl)-2-(2-isopropylpyridin-3-yl)-7,9-dihydro-8H-purin-8-one] | 200 to 2000 |
| O=c1[nH]c2cnc(-c3cccnc3OC(F)F)nc2n1Cc1ccc(-n2nccn2)cc1 [Compound I-4, 9-(4-(2H-1,2,3-triazol-2-yl)benzyl)-2-(2-(difluoromethoxy)pyridin-3-yl)-7,9-dihydro-8H-purin-8-one] | > 2000 |
| CC(C)COc1ncccc1-c1ncc2[nH]c(=O)n(Cc3ccc(-n4nccn4)cc3)c2n1 [Compound I-5, 9-(4-(2H-1,2,3-triazol-2-yl)benzyl)-2-(2-isobutoxypyridin-3-yl)-7,9-dihydro-8H-purin-8-one] | > 2000 |
| CC(C)c1ccccc1-c1ncc2c(n1)n(Cc1ccc(-n3cccn3)cc1)c(=O)n2C [Compound I-6, 9-(4-(1H-pyrazol-1-yl)benzyl)-2-(2-isopropylphenyl)-7-methyl-7,9-dihydro-8H-purin-8-one] | 50 to 200 |
| CC(C)c1ncccc1-c1ncc2c(n1)n(Cc1ccc(-n3cccn3)cc1)c(=O)n2C [Compound I-7, 9-(4-(1H-pyrazol-1-yl)benzyl)-2-(2-isopropylpyridin-3-yl)-7-methyl-7,9-dihydro-8H-purin-8-one] | 200 to 2000 |
| CC(C)c1c(F)cccc1-c1ncc2c(n1)n(Cc1ccc(-n3cccn3)cc1)c(=O)n2C [Compound I-8, 9-(4-(1H-pyrazol-1-yl)benzyl)-2-(3-fluoro-2-isopropylphenyl)-7-methyl-7,9-dihydro-8H-purin-8-one] | < 50 |
| CC(C)c1ccc(F)cc1-c1ncc2c(n1)n(Cc1ccc(-n3cccn3)cc1)c(=O)n2C [Compound I-9, 9-(4-(1H-pyrazol-1-yl)benzyl)-2-(5-fluoro-2-isopropylphenyl)-7-methyl-7,9-dihydro-8H-purin-8-one] | 200 to 2000 |
| CC(C)c1cc(F)ccc1-c1ncc2c(n1)n(Cc1ccc(-n3cccn3)cc1)c(=O)n2C [Compound I-10, 9-(4-(1H-pyrazol-1-yl)benzyl)-2-(4-fluoro-2-isopropylphenyl)-7-methyl-7,9-dihydro-8H-purin-8-one] | 200 to 2000 |
| CC(C)c1cccc(F)c1-c1ncc2c(n1)n(Cc1ccc(-n3cccn3)cc1)c(=O)n2C [Compound I-11, 9-(4-(1H-pyrazol-1-yl)benzyl)-2-(2-fluoro-6-isopropylphenyl)-7-methyl-7,9-dihydro-8H-purin-8-one] | < 50 |
| CC(C)c1ncccc1-c1ncc2[nH]c(=O)n([C@@H](C)c3ccc(-n4cccn4)cc3)c2n1 [Compound I-13, (S)-9-(1-(4-(1H-pyrazol-1-yl)phenyl)ethyl)-2-(2-isopropylpyridin-3-yl)-7,9-dihydro-8H-purin-8-one] | 200 to 2000 |
| CC(C)c1ncccc1-c1ncc2[nH]c(=O)n([C@H](C)c3ccc(-n4cccn4)cc3)c2n1 [Compound I-14, (R)-9-(1-(4-(1H-pyrazol-1-yl)phenyl)ethyl)-2-(2-isopropylpyridin-3-yl)-7,9-dihydro-8H-purin-8-one] | 50 to 200 |
| CC(C)Oc1cc(F)ccc1-c1ncc2[nH]c(=O)n(Cc3ccc(-n4nccn4)cc3)c2n1 [Compound I-15, 9-(4-(2H-1,2,3-triazol-2-yl)benzyl)-2-(4-fluoro-2-isopropoxyphenyl)-7,9-dihydro-8H-purin-8-one] | > 2000 |
| COc1c(F)cccc1-c1ncc2[nH]c(=O)n(Cc3ccc(-n4nccn4)cc3)c2n1 [Compound I-16, 9-(4-(2H-1,2,3-triazol-2-yl)benzyl)-2-(3-fluoro-2-methoxyphenyl)-7,9-dihydro-8H-purin-8-one] | > 2000 |
| CC(C)c1ccncc1-c1ncc2c(n1)n(Cc1ccc(-n3cccn3)cc1)c(=O)n2C [Compound I-17, 9-(4-(1H-pyrazol-1-yl)benzyl)-2-(4-isopropylpyridin-3-yl)-7-methyl-7,9-dihydro-8H-purin-8-one] | > 2000 |
| O=c1[nH]c2cnc(-c3cccnc3OCC(F)(F)F)nc2n1Cc1ccc(-n2cccn2)cc1 [Compound I-18, 9-(4-(1H-pyrazol-1-yl)benzyl)-2-(2-(2,2,2-trifluoroethoxy)pyridin-3-yl)-7,9-dihydro-8H-purin-8-one] | 200 to 2000 |
| CCOc1ncccc1-c1ncc2[nH]c(=O)n(Cc3ccc(-n4cccn4)cc3)c2n1 [Compound I-19, 9-(4-(1H-pyrazol-1-yl)benzyl)-2-(2-ethoxypyridin-3-yl)-7,9-dihydro-8H-purin-8-one] | 200 to 2000 |
| COCCOc1ccccc1-c1ncc2[nH]c(=O)n(Cc3ccc(-n4cccn4)cc3)c2n1 [Compound I-20, 9-(4-(1H-pyrazol-1-yl)benzyl)-2-(2-(2-methoxyethoxy)phenyl)-7,9-dihydro-8H-purin-8-one] | 200 to 2000 |
| CCCOc1ccccc1-c1ncc2[nH]c(=O)n(Cc3ccc(-n4cccn4)cc3)c2n1 [Compound I-21, 9-(4-(1H-pyrazol-1-yl)benzyl)-2-(2-propoxyphenyl)-7,9-dihydro-8H-purin-8-one] | 50 to 200 |
| O=c1[nH]c2cnc(-c3ccccc3OCC(F)(F)F)nc2n1Cc1ccc(-n2cccn2)cc1 [Compound I-22, 9-(4-(1H-pyrazol-1-yl)benzyl)-2-(2-(2,2,2-trifluoroethoxy)phenyl)-7,9-dihydro-8H-purin-8-one] | 200 to 2000 |
| O=c1[nH]c2cnc(-c3ccccc3OCC3CC3)nc2n1Cc1ccc(-n2cccn2)cc1 [Compound I-23, 9-(4-(1H-pyrazol-1-yl)benzyl)-2-(2-(cyclopropylmethoxy)phenyl)-7,9-dihydro-8H-purin-8-one] | 50 to 200 |
| O=c1[nH]c2cnc(-c3cccnc3OCC(F)(F)F)nc2n1[C@@H]1CC[C@H]1c1ccc(-n2cccn2)cc1 [Compound I-24, 9-((1R,2S)-2-(4-(1H-pyrazol-1-yl)phenyl)cyclobutyl)-2-(2-(2,2,2-trifluoroethoxy)pyridin-3-yl)-7,9-dihydro-8H-purin-8-one] | 50 to 200 |
| O=c1[nH]c2cnc(-c3cccc4c3OC(F)(F)O4)nc2n1Cc1ccc(-n2cccn2)cc1 [Compound I-25, 9-(4-(1H-pyrazol-1-yl)benzyl)-2-(2,2-difluorobenzo[d][1,3]dioxol-4-yl)-7,9-dihydro-8H-purin-8-one] | 50 to 200 |
| Cn1cc(C(F)(F)F)nc1-c1ccc(Cn2c(=O)[nH]c3cnc(-c4cccnc4OCC(F)(F)F)nc32)cc1 [Compound I-26, 9-(4-(1-methyl-4-(trifluoromethyl)-1H-imidazol-2-yl)benzyl)-2-(2-(2,2,2-trifluoroethoxy)pyridin-3-yl)-7,9-dihydro-8H-purin-8-one] | < 50 |
| CCc1ccccc1-c1ncc2[nH]c(=O)n(Cc3ccc(-n4cccn4)cc3)c2n1 [Compound I-27, 9-(4-(1H-pyrazol-1-yl)benzyl)-2-(2-ethylphenyl)-7,9-dihydro-8H-purin-8-one] | 50 to 200 |
| Cn1ccc2cccc(-c3ncc4[nH]c(=O)n(Cc5ccc(-n6cccn6)cc5)c4n3)c21 [Compound I-29, 9-(4-(1H-pyrazol-1-yl)benzyl)-2-(1-methyl-1H-indol-7-yl)-7,9-dihydro-8H-purin-8-one] | 200 to 2000 |
| Cn1cc(C(F)(F)F)nc1-c1ccc(Cn2c(=O)[nH]c3cnc(-c4cccnc4C4CC4)nc32)cc1 [Compound I-30, 2-(2-cyclopropylpyridin-3-yl)-9-(4-(1-methyl-4-(trifluoromethyl)-1H-imidazol-2-yl)benzyl)-7,9-dihydro-8H-purin-8-one] | < 50 |
